Several values for one entry are separate records, joined by “and”; a condition that tells them apart may be missing. Equal values may be shown once. Read-outs that look alike come from different tables or passages of the source. Non-standard residues stand in square brackets, D forms with d. Residues, ends and D or L forms follow the SMILES beside them. NMeH = CN[C@@H](Cc1c[nH]cn1)C(=O)O; Gly(N-CH2CH2OH) = O=C(O)CNCCO; NMeL = CN[C@@H](CC(C)C)C(=O)O
Tests used:
[1] = molecular target: T1, HCoV-229E spike protein (Human coronavirus 229E, UniProt P15423); assay: Surface plasmon resonance (SPR) direct binding; details: spike immobilized on CM5 chip, HBS-P+ buffer, 25 °C, 1:1 model, koff/kon
T1 construct: purchased Acrobiosystems SPN-H52H3
T1 sequence (P15423 16-1173): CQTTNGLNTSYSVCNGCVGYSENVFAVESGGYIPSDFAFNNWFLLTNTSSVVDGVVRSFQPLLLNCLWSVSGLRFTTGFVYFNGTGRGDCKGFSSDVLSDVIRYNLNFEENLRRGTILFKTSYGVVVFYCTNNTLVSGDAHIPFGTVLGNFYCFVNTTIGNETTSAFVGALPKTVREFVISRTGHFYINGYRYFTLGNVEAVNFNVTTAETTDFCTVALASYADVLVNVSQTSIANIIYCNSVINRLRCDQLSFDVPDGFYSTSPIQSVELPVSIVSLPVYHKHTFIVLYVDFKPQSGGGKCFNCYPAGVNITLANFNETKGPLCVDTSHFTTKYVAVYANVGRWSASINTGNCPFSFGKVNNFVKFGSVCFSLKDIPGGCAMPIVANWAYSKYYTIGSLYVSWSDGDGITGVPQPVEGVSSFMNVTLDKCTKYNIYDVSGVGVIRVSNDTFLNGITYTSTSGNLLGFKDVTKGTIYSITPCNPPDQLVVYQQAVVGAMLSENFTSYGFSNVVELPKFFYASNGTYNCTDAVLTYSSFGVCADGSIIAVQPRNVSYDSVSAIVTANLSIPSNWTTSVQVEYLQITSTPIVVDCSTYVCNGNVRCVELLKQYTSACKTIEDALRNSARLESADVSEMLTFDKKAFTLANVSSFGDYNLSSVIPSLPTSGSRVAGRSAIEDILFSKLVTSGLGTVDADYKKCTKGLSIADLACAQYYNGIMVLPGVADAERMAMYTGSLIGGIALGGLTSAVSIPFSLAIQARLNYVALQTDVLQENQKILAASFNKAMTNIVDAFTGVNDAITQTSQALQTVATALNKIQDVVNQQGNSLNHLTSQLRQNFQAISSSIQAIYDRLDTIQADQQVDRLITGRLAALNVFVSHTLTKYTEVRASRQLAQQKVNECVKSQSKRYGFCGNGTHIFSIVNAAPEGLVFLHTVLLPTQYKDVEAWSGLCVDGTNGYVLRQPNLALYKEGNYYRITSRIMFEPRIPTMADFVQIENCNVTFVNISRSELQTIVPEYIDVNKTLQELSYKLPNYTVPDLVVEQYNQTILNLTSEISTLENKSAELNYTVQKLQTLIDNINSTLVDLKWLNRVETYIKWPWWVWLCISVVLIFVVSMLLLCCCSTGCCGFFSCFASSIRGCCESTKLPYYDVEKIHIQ

[2] = test system: 229E Coronavirus
[3] = molecular target: T1, HCoV-229E spike protein; assay: Microscale thermophoresis (MST) direct binding; details: NT647-labeled spike protein, PBS, triplicate
[4] = test system: Influenza A H1N1 Virus; parameters: method as in earlier work; details: concentration that reduced the cytopathic effect by 50%; cited from earlier work
[5] = molecular target: T1, HCoV-229E spike protein; assay: Nanoscale differential scanning fluorometry (nanoDSF) thermal shift; format: binding; details: for ∆Tm: 200 μM compound, 2 μM spike protein, PBS pH 7.4; for Tm: 200 μM peptide, 2 µM protein, ramp 20-95 °C
[6] = concentration that reduced the cytopathic effect by 50%, virus pre-incubated with compound 1 h at 4 °C, compound present 72 h, MRC-5 cells, mean ± standard error of three experiments

CC(=O)N[C@@H](CO)C(=O)N[C@@H](CC(C)C)C(=O)N[C@@H](CC(=O)O)C(=O)N[C@@H](CS)C(N)=O [Compound 1, SLDC] (Ac-SLDC-NH2)
Kd [1]: > 50000 nM
EC50 [2, 6]: 50 ± 0.4 nM
Kd [3]: 4920 ± 700 nM

CC(=O)N[C@@H](CO)C(=O)N[C@@H](CCCCN)C(=O)N[C@@H](Cc1c[nH]cn1)C(=O)N[C@@H](CO)C(N)=O [Compound 2, SKHS] (Ac-SKHS-NH2)
Kd [1]: 41400 ± 870 nM
EC50 [2, 6]: 500 ± 2 nM
Kd [3]: 5120 ± 600 nM

CC(=O)N[C@@H](CO)C(=O)N[C@@H](CCCCN)C(=O)N(C)[C@@H](Cc1c[nH]cn1)C(=O)N[C@@H](CO)C(N)=O [Compound 3, SK(N-Me)HS] (Ac-SK[NMeH]S-NH2)
Kd [1]: 416 ± 442 nM
EC50 [2, 6]: ~0.031 nM and 0.031 nM
EC50 ([2]; read-out: EC50, Infection Cycle, compound present during adsorption and entire replication cycle (1 h + 72 h)): 0.043 nM
Kd [3]: 390 ± 50 nM
EC50 [4]: 0.142 ± 0.002 nM
∆Tm [5]: 0.3 °C
Tm [5]: 81.9 °C

CC(=O)N[C@@H](CO)C(=O)N(C)[C@@H](CC(C)C)C(=O)N[C@@H](CC(=O)O)C(=O)N[C@@H](CS)C(N)=O [Compound 4, S(N-Me)LDC] (Ac-S[NMeL]DC-NH2)
Kd [1]: 1150 ± 182 nM
Kd [3]: 2600 ± 1300 nM
EC50 [4]: 0.085 ± 0.0004 nM
∆Tm [5]: 0.1 °C
Tm [5]: 81.7 °C

CC(=O)N[C@@H](CO)C(=O)N[C@@H](CCCCN)C(=O)N[C@@H](Cc1c[nH]cn1)C(=O)N(CCO)CC(N)=O [Compound 6, SKHNhS] (Ac-SKH[Gly(N-CH2CH2OH)]-NH2)
Kd [1]: 1510 ± 465 nM
Kd [3]: 11000 ± 800 nM
EC50 [4]: 0.5 ± 0.004 nM
∆Tm [5]: 0.4 °C
Tm [5]: 82.0 °C

From paper PMC12389581, “Inhibition of Human Coronavirus 229E by Lactoferrin-Derived Peptidomimetics” (Pharmaceutics, 2025)
